From the supplement of paper PMC8882468

Tested on: HCI-025 (organoid from a breast cancer xenograft)
Test: CTG-3D luminescence at 96 h relative to day-0 seeding control (ratio to day 0); higher = more growth / less cytotoxicity; PDxO 3D drug screen, 96 h, CTG-3D normalised to day-0 seeding control.
Settings: 0.00025 µM; days in culture: 209

Structure (SMILES)	CTG-3D luminescence at 96 h
C[C@@H]1COCCN1c1cc(C2([S@](C)(=N)=O)CC2)nc(-c2cc[nH]c3nccc2-3)n1 [ceralasertib]	1.6
CCN1CCN(Cc2ccc(Nc3ncc(F)c(-c4cc(F)c5nc(C)n(C(C)C)c5c4)n3)nc2)CC1 [abemaciclib]	1.8
NC1(C(=O)N[C@@H](CCO)c2ccc(Cl)cc2)CCN(c2nc[nH]c3nccc2-3)CC1 [capivasertib]	1.99
CC(C)n1nc(-c2ccc3oc(N)nc3c2)c2c(N)ncnc21 [sapanisertib]	2.18
O=C(c1ccc(F)c(F)c1Nc1ccc(I)cc1F)N1CC(O)([C@@H]2CCCCN2)C1 [cobimetinib]	1.67
C[C@H](NC(=O)CCC(F)(F)F)C(=O)N[C@@H]1C(=O)N(CCO)c2ncccc2-c2ccccc21 [crenigacestat]	2.25
Cc1cc(Nc2ncc(Cl)c(Nc3ccccc3S(=O)(=O)C(C)C)n2)c(OC(C)C)cc1C1CCNCC1 [ceritinib]	1.29
CS(=O)(=O)c1ccc(C(=O)Nc2ccc(Cl)c(-c3ccccn3)c2)c(Cl)c1 [vismodegib]	2.63
NC(=O)c1cccc2cn(-c3ccc([C@@H]4CCCNC4)cc3)nc12 [niraparib]	2.67

Same assay, conditions: 0.00025 µM; days in culture: 218

Structure (SMILES)	CTG-3D luminescence at 96 h
C[C@@H]1COCCN1c1cc(C2([S@](C)(=N)=O)CC2)nc(-c2cc[nH]c3nccc2-3)n1 [ceralasertib]	1.85
CCN1CCN(Cc2ccc(Nc3ncc(F)c(-c4cc(F)c5nc(C)n(C(C)C)c5c4)n3)nc2)CC1 [abemaciclib]	1.71
NC1(C(=O)N[C@@H](CCO)c2ccc(Cl)cc2)CCN(c2nc[nH]c3nccc2-3)CC1 [capivasertib]	2.08
CC(C)n1nc(-c2ccc3oc(N)nc3c2)c2c(N)ncnc21 [sapanisertib]	2.15
O=C(c1ccc(F)c(F)c1Nc1ccc(I)cc1F)N1CC(O)([C@@H]2CCCCN2)C1 [cobimetinib]	2.13
C[C@H](NC(=O)CCC(F)(F)F)C(=O)N[C@@H]1C(=O)N(CCO)c2ncccc2-c2ccccc21 [crenigacestat]	2.02
Cc1cc(Nc2ncc(Cl)c(Nc3ccccc3S(=O)(=O)C(C)C)n2)c(OC(C)C)cc1C1CCNCC1 [ceritinib]	1.87
CS(=O)(=O)c1ccc(C(=O)Nc2ccc(Cl)c(-c3ccccn3)c2)c(Cl)c1 [vismodegib]	1.67
NC(=O)c1cccc2cn(-c3ccc([C@@H]4CCCNC4)cc3)nc12 [niraparib]	1.94

Same assay, conditions: 0.005 µM; days in culture: 172

Structure (SMILES)	CTG-3D luminescence at 96 h
C[C@@H]1COCCN1c1cc(C2([S@](C)(=N)=O)CC2)nc(-c2cc[nH]c3nccc2-3)n1 [ceralasertib]	3.61
CCN1CCN(Cc2ccc(Nc3ncc(F)c(-c4cc(F)c5nc(C)n(C(C)C)c5c4)n3)nc2)CC1 [abemaciclib]	3.2
NC1(C(=O)N[C@@H](CCO)c2ccc(Cl)cc2)CCN(c2nc[nH]c3nccc2-3)CC1 [capivasertib]	3.17
CC(C)n1nc(-c2ccc3oc(N)nc3c2)c2c(N)ncnc21 [sapanisertib]	1.61
O=C(c1ccc(F)c(F)c1Nc1ccc(I)cc1F)N1CC(O)([C@@H]2CCCCN2)C1 [cobimetinib]	2.47
C[C@H](NC(=O)CCC(F)(F)F)C(=O)N[C@@H]1C(=O)N(CCO)c2ncccc2-c2ccccc21 [crenigacestat]	2.79
Cc1cc(Nc2ncc(Cl)c(Nc3ccccc3S(=O)(=O)C(C)C)n2)c(OC(C)C)cc1C1CCNCC1 [ceritinib]	3.23
CS(=O)(=O)c1ccc(C(=O)Nc2ccc(Cl)c(-c3ccccn3)c2)c(Cl)c1 [vismodegib]	3.88
NC(=O)c1cccc2cn(-c3ccc([C@@H]4CCCNC4)cc3)nc12 [niraparib]	3.92

Same assay, conditions: 0.005 µM; days in culture: 209

Structure (SMILES)	CTG-3D luminescence at 96 h
C[C@@H]1COCCN1c1cc(C2([S@](C)(=N)=O)CC2)nc(-c2cc[nH]c3nccc2-3)n1 [ceralasertib]	1.64
CCN1CCN(Cc2ccc(Nc3ncc(F)c(-c4cc(F)c5nc(C)n(C(C)C)c5c4)n3)nc2)CC1 [abemaciclib]	1.98
NC1(C(=O)N[C@@H](CCO)c2ccc(Cl)cc2)CCN(c2nc[nH]c3nccc2-3)CC1 [capivasertib]	1.44
CC(C)n1nc(-c2ccc3oc(N)nc3c2)c2c(N)ncnc21 [sapanisertib]	1.62
O=C(c1ccc(F)c(F)c1Nc1ccc(I)cc1F)N1CC(O)([C@@H]2CCCCN2)C1 [cobimetinib]	2.01
C[C@H](NC(=O)CCC(F)(F)F)C(=O)N[C@@H]1C(=O)N(CCO)c2ncccc2-c2ccccc21 [crenigacestat]	2.26
Cc1cc(Nc2ncc(Cl)c(Nc3ccccc3S(=O)(=O)C(C)C)n2)c(OC(C)C)cc1C1CCNCC1 [ceritinib]	1.23
CS(=O)(=O)c1ccc(C(=O)Nc2ccc(Cl)c(-c3ccccn3)c2)c(Cl)c1 [vismodegib]	2.69
NC(=O)c1cccc2cn(-c3ccc([C@@H]4CCCNC4)cc3)nc12 [niraparib]	2.31

Same assay, conditions: 0.005 µM; days in culture: 218

Structure (SMILES)	CTG-3D luminescence at 96 h
C[C@@H]1COCCN1c1cc(C2([S@](C)(=N)=O)CC2)nc(-c2cc[nH]c3nccc2-3)n1 [ceralasertib]	2.07
CCN1CCN(Cc2ccc(Nc3ncc(F)c(-c4cc(F)c5nc(C)n(C(C)C)c5c4)n3)nc2)CC1 [abemaciclib]	1.83
NC1(C(=O)N[C@@H](CCO)c2ccc(Cl)cc2)CCN(c2nc[nH]c3nccc2-3)CC1 [capivasertib]	1.82
CC(C)n1nc(-c2ccc3oc(N)nc3c2)c2c(N)ncnc21 [sapanisertib]	1.44
O=C(c1ccc(F)c(F)c1Nc1ccc(I)cc1F)N1CC(O)([C@@H]2CCCCN2)C1 [cobimetinib]	1.88
C[C@H](NC(=O)CCC(F)(F)F)C(=O)N[C@@H]1C(=O)N(CCO)c2ncccc2-c2ccccc21 [crenigacestat]	1.67
Cc1cc(Nc2ncc(Cl)c(Nc3ccccc3S(=O)(=O)C(C)C)n2)c(OC(C)C)cc1C1CCNCC1 [ceritinib]	1.86
CS(=O)(=O)c1ccc(C(=O)Nc2ccc(Cl)c(-c3ccccn3)c2)c(Cl)c1 [vismodegib]	2.01
NC(=O)c1cccc2cn(-c3ccc([C@@H]4CCCNC4)cc3)nc12 [niraparib]	1.97

Same assay, conditions: 0.1 µM; days in culture: 172

Structure (SMILES)	CTG-3D luminescence at 96 h
C[C@@H]1COCCN1c1cc(C2([S@](C)(=N)=O)CC2)nc(-c2cc[nH]c3nccc2-3)n1 [ceralasertib]	2.46
CCN1CCN(Cc2ccc(Nc3ncc(F)c(-c4cc(F)c5nc(C)n(C(C)C)c5c4)n3)nc2)CC1 [abemaciclib]	2.1
NC1(C(=O)N[C@@H](CCO)c2ccc(Cl)cc2)CCN(c2nc[nH]c3nccc2-3)CC1 [capivasertib]	1.35
CC(C)n1nc(-c2ccc3oc(N)nc3c2)c2c(N)ncnc21 [sapanisertib]	0.407
O=C(c1ccc(F)c(F)c1Nc1ccc(I)cc1F)N1CC(O)([C@@H]2CCCCN2)C1 [cobimetinib]	1.38
C[C@H](NC(=O)CCC(F)(F)F)C(=O)N[C@@H]1C(=O)N(CCO)c2ncccc2-c2ccccc21 [crenigacestat]	2.23
Cc1cc(Nc2ncc(Cl)c(Nc3ccccc3S(=O)(=O)C(C)C)n2)c(OC(C)C)cc1C1CCNCC1 [ceritinib]	2.01
CS(=O)(=O)c1ccc(C(=O)Nc2ccc(Cl)c(-c3ccccn3)c2)c(Cl)c1 [vismodegib]	2.18
NC(=O)c1cccc2cn(-c3ccc([C@@H]4CCCNC4)cc3)nc12 [niraparib]	2.04

Same assay, conditions: 0.1 µM; days in culture: 209

Structure (SMILES)	CTG-3D luminescence at 96 h
C[C@@H]1COCCN1c1cc(C2([S@](C)(=N)=O)CC2)nc(-c2cc[nH]c3nccc2-3)n1 [ceralasertib]	1
CCN1CCN(Cc2ccc(Nc3ncc(F)c(-c4cc(F)c5nc(C)n(C(C)C)c5c4)n3)nc2)CC1 [abemaciclib]	2.2
NC1(C(=O)N[C@@H](CCO)c2ccc(Cl)cc2)CCN(c2nc[nH]c3nccc2-3)CC1 [capivasertib]	0.818
CC(C)n1nc(-c2ccc3oc(N)nc3c2)c2c(N)ncnc21 [sapanisertib]	0.44
O=C(c1ccc(F)c(F)c1Nc1ccc(I)cc1F)N1CC(O)([C@@H]2CCCCN2)C1 [cobimetinib]	1.27
C[C@H](NC(=O)CCC(F)(F)F)C(=O)N[C@@H]1C(=O)N(CCO)c2ncccc2-c2ccccc21 [crenigacestat]	1.61
Cc1cc(Nc2ncc(Cl)c(Nc3ccccc3S(=O)(=O)C(C)C)n2)c(OC(C)C)cc1C1CCNCC1 [ceritinib]	1.33
CS(=O)(=O)c1ccc(C(=O)Nc2ccc(Cl)c(-c3ccccn3)c2)c(Cl)c1 [vismodegib]	1.56
NC(=O)c1cccc2cn(-c3ccc([C@@H]4CCCNC4)cc3)nc12 [niraparib]	1.69

Same assay, conditions: 0.1 µM; days in culture: 218

Structure (SMILES)	CTG-3D luminescence at 96 h
C[C@@H]1COCCN1c1cc(C2([S@](C)(=N)=O)CC2)nc(-c2cc[nH]c3nccc2-3)n1 [ceralasertib]	1.64
CCN1CCN(Cc2ccc(Nc3ncc(F)c(-c4cc(F)c5nc(C)n(C(C)C)c5c4)n3)nc2)CC1 [abemaciclib]	1.55
NC1(C(=O)N[C@@H](CCO)c2ccc(Cl)cc2)CCN(c2nc[nH]c3nccc2-3)CC1 [capivasertib]	1.2
CC(C)n1nc(-c2ccc3oc(N)nc3c2)c2c(N)ncnc21 [sapanisertib]	0.421
O=C(c1ccc(F)c(F)c1Nc1ccc(I)cc1F)N1CC(O)([C@@H]2CCCCN2)C1 [cobimetinib]	1.42
C[C@H](NC(=O)CCC(F)(F)F)C(=O)N[C@@H]1C(=O)N(CCO)c2ncccc2-c2ccccc21 [crenigacestat]	1.69
Cc1cc(Nc2ncc(Cl)c(Nc3ccccc3S(=O)(=O)C(C)C)n2)c(OC(C)C)cc1C1CCNCC1 [ceritinib]	1.8
CS(=O)(=O)c1ccc(C(=O)Nc2ccc(Cl)c(-c3ccccn3)c2)c(Cl)c1 [vismodegib]	1.69
NC(=O)c1cccc2cn(-c3ccc([C@@H]4CCCNC4)cc3)nc12 [niraparib]	1.83

Same assay, conditions: 1 µM; days in culture: 172

Structure (SMILES)	CTG-3D luminescence at 96 h
C[C@@H]1COCCN1c1cc(C2([S@](C)(=N)=O)CC2)nc(-c2cc[nH]c3nccc2-3)n1 [ceralasertib]	1.59
CCN1CCN(Cc2ccc(Nc3ncc(F)c(-c4cc(F)c5nc(C)n(C(C)C)c5c4)n3)nc2)CC1 [abemaciclib]	2.55
NC1(C(=O)N[C@@H](CCO)c2ccc(Cl)cc2)CCN(c2nc[nH]c3nccc2-3)CC1 [capivasertib]	1.43
CC(C)n1nc(-c2ccc3oc(N)nc3c2)c2c(N)ncnc21 [sapanisertib]	0.372
